In one assay the target is Insulin receptor (Homo sapiens, UniProt P06213). Description: Inhibition of insulin receptor autophosphorylation.
Assay [1] addresses Epidermal growth factor receptor (Homo sapiens, UniProt P00533). The experiment in a line: Inhibition of Epidermal growth factor receptor autophosphorylation in A431 cell membranes.

The structures appear in SMILES notation.

Sequence of Insulin receptor (P06213 28-758 limits assumed): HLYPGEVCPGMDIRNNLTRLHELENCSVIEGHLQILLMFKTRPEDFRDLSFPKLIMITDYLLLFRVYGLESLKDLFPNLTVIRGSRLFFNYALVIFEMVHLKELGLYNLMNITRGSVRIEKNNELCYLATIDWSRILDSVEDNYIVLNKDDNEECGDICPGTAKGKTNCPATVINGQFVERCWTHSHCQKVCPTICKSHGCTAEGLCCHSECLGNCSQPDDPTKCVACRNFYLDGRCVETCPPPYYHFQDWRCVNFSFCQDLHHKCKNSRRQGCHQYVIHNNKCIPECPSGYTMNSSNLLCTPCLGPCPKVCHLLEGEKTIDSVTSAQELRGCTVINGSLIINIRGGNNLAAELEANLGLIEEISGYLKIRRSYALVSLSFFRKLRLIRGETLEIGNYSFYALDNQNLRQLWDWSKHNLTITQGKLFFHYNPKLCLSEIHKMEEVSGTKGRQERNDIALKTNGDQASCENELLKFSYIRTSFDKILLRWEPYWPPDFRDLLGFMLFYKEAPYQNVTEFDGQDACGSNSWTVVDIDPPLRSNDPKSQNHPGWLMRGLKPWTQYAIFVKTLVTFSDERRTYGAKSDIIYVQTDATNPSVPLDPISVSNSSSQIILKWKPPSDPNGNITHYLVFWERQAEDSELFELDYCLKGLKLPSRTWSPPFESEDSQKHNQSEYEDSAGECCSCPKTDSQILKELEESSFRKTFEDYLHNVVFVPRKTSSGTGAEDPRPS
Sequence of Insulin receptor (P06213 763-1382 limits assumed): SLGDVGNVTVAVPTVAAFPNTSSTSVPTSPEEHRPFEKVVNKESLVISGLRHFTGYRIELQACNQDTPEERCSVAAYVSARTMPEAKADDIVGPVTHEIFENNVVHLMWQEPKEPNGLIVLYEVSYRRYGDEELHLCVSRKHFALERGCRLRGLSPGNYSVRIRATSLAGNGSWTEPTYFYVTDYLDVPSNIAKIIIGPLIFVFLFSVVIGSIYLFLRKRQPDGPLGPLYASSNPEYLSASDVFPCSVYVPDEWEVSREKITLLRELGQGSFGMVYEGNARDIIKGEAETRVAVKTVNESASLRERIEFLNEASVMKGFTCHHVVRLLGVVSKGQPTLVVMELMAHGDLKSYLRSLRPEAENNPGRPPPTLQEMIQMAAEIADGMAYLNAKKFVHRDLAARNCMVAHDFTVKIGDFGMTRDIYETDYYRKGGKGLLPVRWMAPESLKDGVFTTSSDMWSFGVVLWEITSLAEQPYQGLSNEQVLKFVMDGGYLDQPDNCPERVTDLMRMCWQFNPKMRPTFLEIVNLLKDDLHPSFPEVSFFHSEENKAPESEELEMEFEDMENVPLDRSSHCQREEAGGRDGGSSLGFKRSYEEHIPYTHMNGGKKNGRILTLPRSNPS
Sequence of Epidermal growth factor receptor (P00533 whole entry): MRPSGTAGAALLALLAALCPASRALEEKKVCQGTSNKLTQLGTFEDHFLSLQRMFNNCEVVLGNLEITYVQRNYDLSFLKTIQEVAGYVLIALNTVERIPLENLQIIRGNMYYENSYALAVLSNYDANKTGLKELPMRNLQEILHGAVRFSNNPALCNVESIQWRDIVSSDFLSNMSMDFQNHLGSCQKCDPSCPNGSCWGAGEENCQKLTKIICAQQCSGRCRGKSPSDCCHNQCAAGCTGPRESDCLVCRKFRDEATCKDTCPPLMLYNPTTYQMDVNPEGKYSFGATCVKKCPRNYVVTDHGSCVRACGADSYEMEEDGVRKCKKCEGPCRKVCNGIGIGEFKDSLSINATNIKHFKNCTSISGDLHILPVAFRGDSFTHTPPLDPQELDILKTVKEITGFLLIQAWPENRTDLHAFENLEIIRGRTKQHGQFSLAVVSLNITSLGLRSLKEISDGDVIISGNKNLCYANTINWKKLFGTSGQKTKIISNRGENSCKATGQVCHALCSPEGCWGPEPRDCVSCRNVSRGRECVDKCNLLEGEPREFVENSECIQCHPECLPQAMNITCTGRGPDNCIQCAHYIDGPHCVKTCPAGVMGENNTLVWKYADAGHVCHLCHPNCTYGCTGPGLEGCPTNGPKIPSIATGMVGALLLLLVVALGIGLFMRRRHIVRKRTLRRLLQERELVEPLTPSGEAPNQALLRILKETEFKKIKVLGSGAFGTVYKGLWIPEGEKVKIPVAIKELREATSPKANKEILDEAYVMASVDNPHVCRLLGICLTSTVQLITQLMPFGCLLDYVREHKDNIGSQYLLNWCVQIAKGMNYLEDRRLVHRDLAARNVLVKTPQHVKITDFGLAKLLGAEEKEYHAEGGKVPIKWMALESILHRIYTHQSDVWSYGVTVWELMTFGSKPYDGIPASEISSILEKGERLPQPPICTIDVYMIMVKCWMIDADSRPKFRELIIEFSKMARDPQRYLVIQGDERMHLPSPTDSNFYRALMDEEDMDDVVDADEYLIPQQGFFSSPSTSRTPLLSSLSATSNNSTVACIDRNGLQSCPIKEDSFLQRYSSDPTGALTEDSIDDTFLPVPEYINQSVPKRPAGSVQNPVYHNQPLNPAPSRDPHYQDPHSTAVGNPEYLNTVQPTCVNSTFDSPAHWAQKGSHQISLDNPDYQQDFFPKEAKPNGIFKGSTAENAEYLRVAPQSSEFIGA

As for `O=P(O)(O)C(O)c1ccc2ccccc2c1` (configuration not stated), the results for the IC50 (at Insulin receptor; in assay [1]) were 200 µM and 250 µM, respectively.

For the origin of these results see ChEMBL document CHEMBL1125830, “Phosphonate-containing inhibitors of tyrosine-specific protein kinases” (J Med Chem, 1991).
